pIC50: −log10 of the molar value.
Key:
[1] = target: T1, human CCR6 (Homo sapiens, UniProt P51684); assay: CHO-K1 CCR6 chemotaxis assay towards CCL20; format: cell-based; settings: relative -Log IC50; CHO-K1 cells overexpressing human CCR6; migration towards 100 ng/ml CCL20; 4 h
T1 sequence (P51684 1-374): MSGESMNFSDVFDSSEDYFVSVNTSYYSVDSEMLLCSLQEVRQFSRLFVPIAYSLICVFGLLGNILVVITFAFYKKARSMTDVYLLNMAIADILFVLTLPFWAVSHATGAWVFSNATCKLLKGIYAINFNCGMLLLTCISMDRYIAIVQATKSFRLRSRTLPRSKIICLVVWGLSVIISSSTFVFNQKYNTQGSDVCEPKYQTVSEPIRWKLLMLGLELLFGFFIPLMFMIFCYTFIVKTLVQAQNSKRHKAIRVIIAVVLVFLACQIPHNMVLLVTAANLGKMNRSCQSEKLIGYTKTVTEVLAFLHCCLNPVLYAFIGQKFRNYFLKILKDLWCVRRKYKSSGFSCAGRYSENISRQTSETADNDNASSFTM
Excerpt: CHO-K1 CCR6 Chemotaxis Assay Towards CCL20
Cells overexpressing human CCR6 were used in the chemotaxis assay (DiscoverX, cAMP Hunter™ CHO-K1 CCR6 Gi Cell Line). Growth medium of these cells consisted of DMEM/F12, non-essential Amino acids (1×NEAA, Gibco 11140050), 10% FBS and 1× pen/strep (Gibco 15140). For the chemotaxis assay, Corning Transwell plates were used with a pore size of 8 m (Corning 351164). Cells were harvested using trypsin and diluted to 4*10^6 cells/ml in chemotaxis medium (DMEM, 0.25% BSA, pen/strep). Compounds were four-fold serially diluted in DMSO. Further dilutions were made in chemotaxis medium. Cells were incubated with test compounds for 30 min at 37° C. prior to initiation of the assay (2*10^6 cells/ml). Final DMSO concentration in the assay was 0.2%. Wells of the Transwell plates were filled with 200 μl chemotaxis medium containing 100 ng/ml CCL20 (R&D systems 360-MP). 50 μl of the cell/compound suspension was added to the inserts of the Transwell plates (100,000 cells/insert). The Transwell plates were placed in an incubator at 37° C., 5% CO2 for 4 h. After 4 h, the number of migrated cells was quantified using CellTiter Glo (Promega). Percentage inhibition values were calculated based on the low and high signal obtained with 0.2% DMSO in chemotaxis medium without and with CCL20, respectively. The relative −Log IC50 was determined with GraphPad Prism 9 using a four-parameter dose-response model.

[2] = target: T1, human CCR6; assay: Human CCR6-CRE reporter assay; format: cell-based; set-up: The second construct contained the open reading frame of human CCR6 in the pUNO1 backbone; host or cells: 293FT cells; settings: relative -Log IC50; 293FT cells transfected with human CCR6 and CRE-luciferase reporter; 6 μM Forskolin, 6 nM CCL20; 5 h
Experimental: Human CCR6-CRE Reporter Assay
293FT cells were transfected with 2 constructs using TransIT-293 (Mirus). The first construct (pGL4.29, Promega) expressed the luciferase reporter gene luc2P in response to the binding of cAMP-induced CREB to the CREelement in its promoter. The second construct contained the open reading frame of human CCR6 in the pUNO1 backbone under the control of an enhanced CMV promoter (InVivoGen). 48 h after transfection, cells were harvested and diluted to 750,000 cells/ml in culture medium (DMEM, 10% FBS, 1× pen/strep (Gibco 15140)). Compounds were 2.5-fold serially diluted in DMSO. Further dilutions were made in assay medium (DMEM, 10% FBS, 1× pen/strep, 6 μM Forskolin, 6 nM CCL20). 4 μl of the compound solution was added to a white MW384 plate, followed by 20 μl of the cell suspension. Final DMSO concentration in the assay was 0.1%. The MW384 plate was placed in an incubator at 37° C., 5% CO2 for 5 h. Luciferase activity was determined by addition of 24 μl of a 2.5× diluted BriteLite luciferase solution (Perkin Elmer), followed by luminescence measurement using a VICTOR Plate reader (Perkin Elmer). […] The relative −Log IC50 was determined with GraphPad Prism 9 using a four-parameter dose-response model.

SMILES | pIC50 [1] | pIC50 [2]
CC(C)c1cnc2ccc(-c3ccc(S(=N)(=O)[C@H]4CC[C@H](Nc5ccc(S(F)(F)(F)(F)F)cc5)CC4)cc3)cn12 (relative stereo) [Example 118, {4-[3-(propan-2-yl)imidazo[1,2-a]pyridin-6-yl]phenyl}[trans-4-{[4-(pentafluoro-λ^6-sulfanyl)phenyl]Amino}cyclohexyl](imino)-λ^6-sulfanone] | 6.40 | 7.10
N#Cc1c[nH]c2ccc(-c3ccc(S(=N)(=O)[C@H]4CC[C@H](Nc5ccc(S(F)(F)(F)(F)F)cc5)CC4)cc3)cc12 (single isomer, unassigned; (+)) [Example 126, (+)-5-(4-{[trans-4-{[4-(pentafluoro-λ^6-sulfanyl)phenyl]Amino}cyclohexyl]sulfonimidoyl}phenyl)-1H-indole-3-carbonitrile] | 6.90 | 6.90
N=S(=O)(c1ccc(-c2ccc3nccn3c2)cc1)[C@H]1CC[C@H](Nc2ccc(S(F)(F)(F)(F)F)cc2)CC1 (single isomer, unassigned; (+)) [Example 128, (+)-(4-{imidazo[1,2-a]pyridin-6-yl}phenyl)[trans-4-{[4-(pentafluoro-λ^6-sulfanyl)phenyl]Amino}cyclohexyl](imino)-λ^6-sulfanone] | 6.60 | 6.90
N#Cc1c[nH]c2ccc(-c3ccc(S(=N)(=O)[C@H]4CC[C@H](Nc5ccc(S(F)(F)(F)(F)F)cc5)CC4)cc3)cc12 (single isomer, unassigned; (-)) [Example 127, (−)-5-(4-{[trans-4-{[4-(pentafluoro-λ^6-sulfanyl)phenyl]Amino}cyclohexyl]sulfonimidoyl}phenyl)-1H-indole-3-carbonitrile] | 6.60 | 6.50
NC(=O)c1cc(-c2ccc(S(=O)(=O)N3CC[C@H](Nc4ccc(S(F)(F)(F)(F)F)cc4)[C@@H](F)C3)cc2)ccn1 (stereo in doubt) [Example 83, 4-(4-{[(3S,4S)-3-fluoro-4-{[4-(pentafluoro-λ^6-sulfanyl)phenyl]Amino}piperidin-1-yl]sulfonyl}phenyl)pyridine-2-carboxamide] | 7.30 | 6.50
Cc1cnc2ccc(-c3ccc(S(=O)(=O)[C@H]4CC[C@H](Nc5ccc(S(F)(F)(F)(F)F)cc5)CC4)cc3)cn12 [Example 13, 4-(pentafluoro-λ^6-sulfanyl)-N-[trans-4-(4-{3-methylimidazo[1,2-a]pyridin-6-yl}benzenesulfonyl)cyclohexyl]aniline] | 8.30 | 7.10
O=C1Cc2cc(-c3ccc(S(=O)(=O)[C@H]4CC[C@H](Nc5ccc(S(F)(F)(F)(F)F)cc5)CC4)cc3)ccc2N1 [Example 14, 5-(4-{[trans-4-{[4-(pentafluoro-λ^6-sulfanyl)phenyl]Amino}cyclohexyl]sulfonyl}phenyl)-2,3-dihydro-1H-indol-2-one] | 5.90 | 6.70
CNC(=O)c1ccc(-c2ccc(S(=O)(=O)[C@H]3CC[C@H](Nc4ccc(S(F)(F)(F)(F)F)cc4)CC3)cc2)cc1 [Example 16, N-methyl-4′-{[trans-4-{[4-(pentafluoro-λ^6-sulfanyl)phenyl]Amino}cyclohexyl]sulfonyl}-[1,1′-biphenyl]-4-carboxamide] | 7.90 | 7.20
O=C(NC1CC1)c1cccc(-c2ccc(S(=O)(=O)[C@H]3CC[C@H](Nc4ccc(S(F)(F)(F)(F)F)cc4)CC3)cc2)c1 [Example 144, N-cyclopropyl-4′-{[trans-4-{[4-(pentafluoro-λ^6-sulfanyl)phenyl]amino}cyclohexyl]sulfonyl}-[1,1′-biphenyl]-3-carboxamide] |  | 7.30
O=S(=O)(c1ccc(-c2cc3cc[nH]c3cn2)cc1)[C@H]1CC[C@H](Nc2ccc(S(F)(F)(F)(F)F)cc2)CC1 [Example 146, 4-(pentafluoro-λ^6-sulfanyl)-N-[trans-4-(4-{1H-pyrrolo[2,3-c]pyridin-5-yl}benzenesulfonyl)cyclohexyl]aniline] |  | 6.10
O=S(=O)(c1ccc(-c2ccc3nnc([C@@H]4CCNC4)n3c2)cc1)N1CCC(Nc2ccc(S(F)(F)(F)(F)F)cc2)CC1 [Example 165, N-[4-(pentafluoro-λ^6-sulfanyl)phenyl]-1-(4-{3-[(3R)-pyrrolidin-3-yl]-[1,2,4]triazolo[4,3-a]pyridin-6-yl}benzenesulfonyl)piperidin-4-amine] |  | 6.10
O=S(=O)(c1ccc(-c2ccc3nnc([C@H]4CCNC4)n3c2)cc1)N1CCC(Nc2ccc(S(F)(F)(F)(F)F)cc2)CC1 [Example 166, N-[4-(pentafluoro-λ^6-sulfanyl)phenyl]-1-(4-{3-[(3S)-pyrrolidin-3-yl]-[1,2,4]triazolo[4,3-a]pyridin-6-yl}benzenesulfonyl)piperidin-4-amine] |  | 6.10
Cc1cc(-c2ccc(S(=O)(=O)[C@H]3CC[C@H](Nc4ccc(S(F)(F)(F)(F)F)cn4)CC3)cc2)cn2c(C(C)C)nnc12 [Example 181, 5-(pentafluoro-λ^6-sulfanyl)-N-[trans-4-{4-[8-methyl-3-(propan-2-yl)-[1,2,4]triazolo[4,3-a]pyridin-6-yl]benzenesulfonyl}cyclohexyl]pyridin-2-amine] |  | 7.60

Second part, the compound after the results:

pIC50 [1] | pIC50 [2] | SMILES
6.50 | 6.70 | N=S(=O)(c1ccc(-c2ccc3nccn3c2)cc1)[C@H]1CC[C@H](Nc2ccc(S(F)(F)(F)(F)F)cc2)CC1 (single isomer, unassigned; (-)) [Example 129, (−)-(4-{imidazo[1,2-a]pyridin-6-yl}phenyl)[trans-4-{[4-(pentafluoro-λ^6-sulfanyl)phenyl]Amino}cyclohexyl](imino)-λ^6-sulfanone]
7.10 | 6.90 | O=S(=O)(c1ccc(-c2ccc3nccn3c2)cc1)N1CCC(Nc2ccc(S(F)(F)(F)(F)F)cc2)CC1 [Example 1, 1-(4-{imidazo[1,2-a]pyridin-6-yl}benzenesulfonyl)-N-[4-(pentafluoro-λ^6-sulfanyl)phenyl]piperidin-4-amine]
7.20 | 7.10 | CN(C)C(=O)c1ccc(-c2ccc(S(=O)(=O)[C@H]3CC[C@H](Nc4ccc(S(F)(F)(F)(F)F)cc4)CC3)cc2)cc1 [Example 15, N,N-dimethyl-4′-{[trans-4-{[4-(pentafluoro-λ^6-sulfanyl)phenyl]Amino}cyclohexyl]sulfonyl}-[1,1′-biphenyl]-4-carboxamide]
 | 5.80 | O=S(=O)(c1ccc(-c2ncc3[nH]ccc3n2)cc1)[C@H]1CC[C@H](Nc2ccc(S(F)(F)(F)(F)F)cc2)CC1 [Example 145, 4-(pentafluoro-λ^6-sulfanyl)-N-[trans-4-(4-{5H-pyrrolo[3,2-d]pyrimidin-2-yl}benzenesulfonyl)cyclohexyl]aniline]
 | 7.20 | Cc1cc(-c2ccc(S(=O)(=O)[C@H]3CC[C@H](Nc4ccc(S(F)(F)(F)(F)F)cc4)CC3)cc2)cn2ccnc12 [Example 149, 4-(pentafluoro-λ^6-sulfanyl)-N-[trans-4-(4-{8-methylimidazo[1,2-a]pyridin-6-yl}benzenesulfonyl)cyclohexyl]aniline]
 | 7.00 | CC(C)c1nnc2ccc(-c3ccc(S(=N)(=O)[C@H]4CC[C@H](Nc5ccc(S(F)(F)(F)(F)F)cn5)CC4)cc3)cn12 (stereo partly drawn) [Example 171, {4-[3-(propan-2-yl)-[1,2,4]triazolo[4,3-a]pyridin-6-yl]phenyl}[trans-4-{[5-(pentafluoro-λ^6-sulfanyl)pyridin-2-yl]amino}cyclohexyl](imino)-λ^6-sulfanone]
